According to patent US6767738B1, “Method of isolating adult mammalian CNS-derived progenitor stem cells using density gradient centrifugation” (The Salk Institute for Biological Studies, priority 1999, dated 2004):

Assays:
clonal stem cells (AP14) = test: RT-PCR analysis of p21, NeuroD, trk and p75NGFR mRNA in stem cell cultures; type: cell-based, rat
Method: Cell Culture. For proliferating conditions, clonal stem cells (AP14) were cultured in Dulbecco's Modified Eagles Medium/Ham's F12 (DMEM/F12, 1:1) containing N2 supplement (Gibco BRL, Gaithersburg, Md.) and 20 ng/ml rhFGF-2 (provided by A. Baird, Prizm Pharmaceuticals Inc., La Jolla, Calif.). Culture dishes (Becton Dickinsin Labware, Lincoln Park, N.J.) were coated with polyomithine and mouse laminin as previously described by Ray, et al., Proliferation, differentiation and long-term culture of primary hippocampal neurons, Proc Natl Acad Sci USA 90:3602-3606 (1993). For differentiation experiments, cells were plated into polyornithine/laminin coated glass chamber slides (Nunc, Naperville, Ill.) at a density of 2.5—103 per cm2. The cells were incubated for 24 hrs in normal N2 medium containing 20 ng/ml FGF-2, and then the medium was replaced by N2 medium containing 0.5% […] (FBS) and 0.01% DMSO (control solvent) or […] all-trans retinoic acid (Sigma, St. Louis, Mo.). For further differentiation, the medium was replaced by N2 medium containing 0.5% FBS and one of the following: sterile water (control solvent), mouse 2.55 NGF (50 ng/ml, Boehringer Mannheim, Indianapolis, Ind.), rhBDNF (20 ng/ml, Alomone Labs, Jerusalem, Israel), rhNT-3 (40 ng/ml, Genentech, South San Francisco, Calif.). The medium was replaced every two days. For inhibition of the tyrosine kinase activity of the Trk receptors, K-252a (100 nM, Calbiochem, San Diego, Calif.) was added to the medium.
Reverse Transcription-PCR Analysis. Total RNA from stem cells was isolated using RNeasy Total RNA Kits (Qiagen, Chatsworth, Calif.) according to manufacturer's instructions. Fifty nanograms of total RNA was reverse transcribed using avian myeloblastosis virus reverse transcriptase (Promega, Madison, Wis.) with random hexamers ([…]) as primers in a […] reaction mixture. For PCR amplification, two sets of specific oligonucleotide pairs ([…]) were used: one directed to the transcript of interest, and one for a constitutively expressed transcript, either ribosomal protein L27 or L27a. Reactions were performed in a […] reaction mixture containing 10 mM Tris-Cl (pH 8.4), 50 mm KCl, 1.5 mM MgC12, […] each of the four dNTPs, 2 mCi of [a-32P]dCTP and 5 units of Taq polymerase (Promega) using a thermal cycler (Perkin-Elmer, Foster City, Calif.) with a regimen of 1 min at 94° C., 2 min at 60° C. (55° C. for trk receptors) and 2 min at 72° C. for 23 cycles Fifty microliters of each reaction was analyzed by electrophoresis on 8% polyacrylamide gels followed by autoradiography. […] Under these conditions, the L27 amplification product was directly proportional to the amount of input RNA, up to 50 ng total RNA. Oligonucleotide primers used are as follows: […]

PERCOLL isolated cells = test: Proliferation of PERCOLL isolated whole brain cells; type: cell-based, rat; settings: 20 ng/ml bFGF in vitro
Method: Dissection. Adult female Fischer 344 rats (4-6 months of age) were anesthetized with a mixture of ketamine (44 mg/kg), acepromazine (0.75 mg/kg), and xylazine (4 mg/kg) in 0.9% NaCl and decapitated. The brains were removed and placed into cold phosphate-buffered saline (PBS).
Tissue Preparation. A cell suspension was obtained by pooling the brains from 6 animals from which the cerebella had been trimmed away. The remaining brain tissue was then weighed. The brains were diced into small fragments, and then digested for 40-50 min at 37° C. in Hanks' balanced salt solution containing 0.1% grade II neutral protease (Boehringer Mannheim), 0.01% papain (Worthington), and 0.01% Dnase I (Worthington). The mixture was shaken every five minutes. Every fifteen minutes during the digestion, the tissues were gently disrupted by pipetting the digestion reaction mixture through a 5-ml pipette. The tissue was then rinsed two times with DMEM/F12 containing 10% […] bovine serum, to inactivate digestive enzymes, and filtered through nylon mesh (Nitex, 100 μm pore size), to remove undissociated tissue. The filtered cells were resuspended to a final volume of 10 ml in DMEM/F12/10% FBS.
PERCOLL™ (polyvinylpyrrolidone-coated silica colloids) density gradient preparation and centrifugation. […]

Molecule: CC1=C(/C=C/C(C)=C/C=C/C(C)=C/C(=O)O)C(C)(C)CCC1 [RA, all-trans retinoic acid]
- p21 mRNA (clonal stem cells (AP14); RA treatment, peaked after roughly 5 days): significant yet gradual increase
- trkA mRNA (clonal stem cells (AP14); following RA treatment): increased gradually and reached a plateau after 5 days
- trkB mRNA (clonal stem cells (AP14); following RA treatment): increased gradually and reached a plateau after 5 days
- trkC mRNA (clonal stem cells (AP14); following RA treatment): increased gradually and reached a plateau after 5 days
- p75NGFR mRNA (clonal stem cells (AP14); following RA treatment, 7-day time course): dramatically increased
- expression of NeuroD mRNA (clonal stem cells (AP14); within 24 hrs of FGF-2 withdrawal and RA treatment, 6 days): increased and remained elevated

Molecule: FGF-2: basic fibroblast growth factor, human recombinant, prepared in E. coli
- proliferation response (PERCOLL isolated cells): inducible to proliferate
